# Earlier results in US10729136B2, “Synergistic herbicidal composition and use thereof” (priority 2015, dated 2020).
# Legend:
# [1] = 0.05% Rhodasurf DA630 solution, pH 5.5, after 10 days
structure (smiles),measurement,setting,value
"CS(=O)(=O)c1ccc(C(=O)C2C(=O)CCCC2=O)c([N+](=O)[O-])c1 [Form 2, 2-(4-mesyl-2-nitrobenzoyl)cyclohexane-1,3-dione]","Polymorphic form (microscopy, FT-IR)",[1],still predominately Form 2
same,"Polymorphic form of the suspension, determined periodically","pH between 3.5 and 4, over 3 weeks",always found to be Form 2
same,Time for Form 2 to transform to Form 1,"stirred aqueous suspension, below pH 2.5",≤ 1 h
same,Conversion of Form 2 to Form 1 when seeded,"stirred aqueous suspension, pH 3, seeded with Form 1",converted to Form 1 when seeded with Form 1 over four hours
same,Polymorphic stability of Form 2,"stirred aqueous suspension, pH 3, unseeded",stable
